Test systems include DU-145; A498; HT-29; M14; TK-10; Hs-578T; HOP-92; HCT-15; HCC 2998; CCRF-CEM; SF-539; CAKI-1; OVCAR-3; HOP-62; NCI-H460; KM12; K562; 786-0; SK-MEL-5; NCI-H23.
Experiment in all cases: DTP human tumour cell line panel, 48 h

Molecules are shown by their SMILES.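 Results reflect a 48-hour exposure of cells in 96-well plates to compound at five concentrations. GI50 = concentration required for 50% inhibition of growth.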 Calls of active or inactive are those of the source. Rule as the data show it: active = GI50 up to about 1.1 µM and inactive = higher.

What is called GI50 is the concentration giving 50% growth inhibition. Turning to `O=C1c2ccccc2-[n+]2ccc3c([nH]c4ccccc43)c21` [FASCAPLYSIN CHLORIDE], the GI50 in the experiment on DU-145 was 1.15 µM (inactive); in the experiment with A498 it was 1.58 µM (inactive); with HT-29, 0.37 µM (active); in the experiment with M14, 0.159 µM (active); in the experiment with TK-10, 1.14 µM (inactive); in the experiment on Hs-578T, 1.24 µM (inactive). Also, the GI50 in the experiment on HOP-92 was 1.66 µM (inactive); in the experiment on HCT-15 it was 0.851 µM; with HCC 2998 it was 0.19 µM (active); in the experiment with CCRF-CEM it was 0.337 µM (active); in the experiment on SF-539 it was 0.349 µM (active); with CAKI-1 it was 0.659 µM (active). The GI50 in the experiment with OVCAR-3 was 0.145 µM (active); in the experiment on HOP-62 it was 1.14 µM (inactive); with NCI-H460, 0.263 µM (active); in the experiment with KM12, 0.18 µM (active); in the experiment with K562, 0.925 µM (active); with 786-0, 0.427 µM (active). For the same compound, the GI50 with SK-MEL-5 was 0.14 µM (active); in the experiment with NCI-H23, 0.31 µM (active).

Take `CC(C)C[C@H](NC(=O)[C@H](Cc1cccc2ccccc12)NC(=O)N1CCOCC1)B(O)O`: the 50% growth inhibitory concentration (GI50) in the experiment on DU-145, in the experiment on A498, in the experiment on HT-29, in the experiment on M14, with TK-10 and with Hs-578T was < 0.01 µM (active) throughout. For the same compound, the GI50 was < 0.01 µM (active) in the experiment with HOP-92; below 0.0202 µM with HCT-15; < 0.01 µM (active) in the experiment with HCC 2998; < 0.01 µM (active) in the experiment on CCRF-CEM; < 0.01 µM (active) with SF-539; < 0.0126 µM (active) with CAKI-1. The concentration for 50% growth inhibition (GI50) in the experiment with OVCAR-3 was < 0.01 µM (active); in the experiment with HOP-62, < 0.01 µM (active); with NCI-H460, < 0.012 µM (active); with KM12, < 0.01 µM (active); in the experiment on K562, < 0.01 µM (active); in the experiment on 786-0 it was 0.00362 µM (active). For the same compound, the GI50 in the experiment on SK-MEL-5 is 0.001 µM (active); with NCI-H23, < 0.01 µM (active).

As for `Cc1ccc2c(/C=C/c3ccc(N(C)C)cc3)ccnc2c1C`, the GI50 in the experiment on DU-145 was 48 µM (inactive); in the experiment with A498, > 100 µM (inactive); in the experiment on HT-29, 16.6 µM (inactive); with M14, 51.4 µM (inactive); with TK-10 it was 16.2 µM (inactive); in the experiment with Hs-578T it was 43.2 µM (inactive). Besides, the GI50 with HOP-92 is 15.1 µM (inactive); with HCT-15 it was 12.8 µM; in the experiment on HCC 2998 it was 27.9 µM (inactive); with CCRF-CEM, 32.9 µM (inactive); in the experiment with SF-539, 32.2 µM (inactive); in the experiment on CAKI-1, 27.4 µM (inactive). Besides, the GI50 was 32.4 µM (inactive) with OVCAR-3; 30.8 µM (inactive) in the experiment with HOP-62; 25.6 µM (inactive) with NCI-H460; 6.78 µM (inactive) in the experiment on KM12; 6.81 µM (inactive) in the experiment with K562; 27.4 µM (inactive) in the experiment on 786-0. Further, the GI50 in the experiment on SK-MEL-5 was 18.2 µM (inactive); in the experiment on NCI-H23 it was 55.3 µM (inactive).

Regarding `CCOC(=O)C1=C(C)NC(C)=C(C(=O)OCC)C1c1ccc(Cl)cc1`, the GI50 was 17.3 µM (inactive) with DU-145; 16.4 µM (inactive) with A498; 10.9 µM (inactive) in the experiment with HT-29; 16.6 µM (inactive) in the experiment on M14; 14.8 µM (inactive) in the experiment on TK-10; 19.6 µM (inactive) in the experiment with Hs-578T. The GI50 in the experiment with HOP-92 is 10.3 µM (inactive); with HCT-15 it was 16.6 µM; in the experiment on HCC 2998, 14.7 µM (inactive); with CCRF-CEM, 1.43 µM (inactive); in the experiment with SF-539, 18.8 µM (inactive); in the experiment with CAKI-1, 16.5 µM (inactive). Further, the GI50 with OVCAR-3 was 15.8 µM (inactive); in the experiment on HOP-62, 14.8 µM (inactive); in the experiment with NCI-H460, 4.6 µM (inactive); in the experiment on KM12, 17.5 µM (inactive); in the experiment with K562, 9.91 µM (inactive); with 786-0 it was 13 µM (inactive). Also, the GI50 is 13.7 µM (inactive) in the experiment with SK-MEL-5 and 14.4 µM (inactive) in the experiment on NCI-H23.

On to `CN(CCCNC(=O)c1nn(C)c2c1Cc1ccccc1-2)CCCNC(=O)c1nn(C)c2c1Cc1ccccc1-2`, for which the GI50 in the experiment on DU-145 was 16.9 µM (inactive); in the experiment with A498 it was 17 µM (inactive); in the experiment on HT-29, 13.3 µM (inactive); in the experiment on M14 it was 6.15 µM (inactive); with TK-10 it was 19.1 µM (inactive); with Hs-578T it was 20.5 µM (inactive). Besides, the GI50 in the experiment on HOP-92 is 15.6 µM (inactive); in the experiment with HCT-15, 17.7 µM; in the experiment with HCC 2998, 8.22 µM (inactive); in the experiment on CCRF-CEM, 2.18 µM (inactive); with SF-539, 16.4 µM (inactive); with CAKI-1 it was 18.7 µM (inactive). The GI50 was 16.1 µM (inactive) with OVCAR-3; 10.8 µM (inactive) with HOP-62; 18 µM (inactive) with NCI-H460; 16.2 µM (inactive) in the experiment on KM12; 7.94 µM (inactive) in the experiment on K562; 10.7 µM (inactive) in the experiment with 786-0. Besides, the GI50 in the experiment on SK-MEL-5 is 13.5 µM (inactive); with NCI-H23, 21.9 µM (inactive).

As to `N#C/C(=C1C=C(Br)/C(=N\O)C=C\1Cl)c1cccc2ccccc12`, the GI50 was 3.31 µM (inactive) with DU-145; 9.02 µM (inactive) in the experiment with A498; 2.26 µM (inactive) with HT-29; 2.77 µM (inactive) with M14; 11.5 µM (inactive) in the experiment with TK-10; 3.55 µM (inactive) in the experiment with Hs-578T. Further, the GI50 was 8.57 µM (inactive) in the experiment with HOP-92; 4.73 µM in the experiment on HCT-15; 5.77 µM (inactive) in the experiment with HCC 2998; 2.62 µM (inactive) with CCRF-CEM; 1.96 µM (inactive) in the experiment on SF-539; 3.48 µM (inactive) with CAKI-1. In addition, the GI50 in the experiment with OVCAR-3 is 2.76 µM (inactive); with HOP-62, 10.3 µM (inactive); in the experiment on NCI-H460, 5.16 µM (inactive); with KM12 it was 3.92 µM (inactive); in the experiment with K562, 3.51 µM (inactive); in the experiment with 786-0 it was 3.34 µM (inactive). For the same compound, the GI50 is 3.42 µM (inactive) in the experiment with SK-MEL-5 and 13.2 µM (inactive) in the experiment on NCI-H23.

Take `O=[N+]([O-])/C(C(Cl)=C(Cl)Cl)=C(/Nc1ccccc1)Sc1ccccc1`: the GI50 is 21.1 µM (inactive) in the experiment with DU-145; 20.8 µM (inactive) in the experiment with A498; 22.6 µM (inactive) with HT-29; 19.8 µM (inactive) in the experiment on M14; 27.7 µM (inactive) in the experiment with TK-10; 40.4 µM (inactive) with Hs-578T. Moreover, the GI50 in the experiment with HOP-92 was 32.8 µM (inactive); with HCT-15, 19.8 µM; in the experiment on HCC 2998, 18.5 µM (inactive); with CCRF-CEM, 16.8 µM (inactive); in the experiment with SF-539, 24.9 µM (inactive); in the experiment on CAKI-1, 13.5 µM (inactive). For the same compound, the GI50 in the experiment on OVCAR-3 was 15.7 µM (inactive); with HOP-62 it was 19.5 µM (inactive); with NCI-H460, 18.4 µM (inactive); with KM12 it was 18.2 µM (inactive); in the experiment on K562, 20.6 µM (inactive); with 786-0, 21.7 µM (inactive). In addition, the GI50 with SK-MEL-5 is 20.3 µM (inactive); in the experiment with NCI-H23, 18.7 µM (inactive).
